The subject of data set [1] is alcohol self-administration. The data set can be described thus: Operant alcohol self-administration in ethanol dependent and non-dependent rats. The format is in vivo, Wistar rats. On the procedure: Alcohol self-administration in ethanol dependent and non-dependent animals is a well-known and well-characterized animal model for analysis of alcoholism behaviors (Roberts et al. 1999, 2000; Rimondini et al. 2002; O'Dell et al. 2004; Richardson et al. 2008; Gilpin et al. 2009).
Adult male Wistar rats (Charles River, Raleigh, N.C.), weighing 225-275 g at the beginning of the experiments, were housed in groups of 2-3 per cage in a temperature-controlled (22° C.) vivarium on a 12 h/12 h light/dark cycle (lights on at 8:00 PM) with ad libitum access to food and water. All behavioral tests were conducted during the dark phase of the light/dark cycle. All procedures adhered to the National Institutes of Health Guide for the Care and Use of Laboratory Animals and were approved by the Institutional Animal Care and Use Committee of The Scripps Research Institute.
Self-administration sessions were conducted in standard operant conditioning chambers (Med Associates, St. Albans, Vt.). Animals were first trained to self-administer 10% (w/v) ethanol and water solutions until a stable response was maintained. The rats were subjected to an overnight session in the operant chambers with access to one lever (right lever) that delivered water (FR1). Food was available ad libitum during this training. After 1 day off, the rats were subjected to a 2 h session (FR1) for 1 day and a 1 h session (FR1) the next day, with one lever delivering alcohol (right lever). All of the subsequent sessions lasted 30 min, and two levers were available (left lever: water; right lever: alcohol) until stable levels of intake were reached. Upon completion of this procedure, the animals were allowed to self-administer a 10% (w/v) alcohol solution and water on an FR1 schedule of reinforcement (i.e., each operant response was reinforced with 0.1 ml of the solution).
Once a stable baseline of alcohol self-administration was reached, the rats were made dependent by chronic, intermittent exposure to alcohol vapors. […]
(§1) Data were analyzed by appropriate mixed factorial ANOVA, followed Newman Keuls post hoc tests

In data set [2] the target is purified tubulin and MAP2 (Homo sapiens, UniProt P11137). Briefly: Increase in optical density at 345 nm of purified tubulin and MAP2 (microtubule polymerization). The format is biochemical. The note with it: 37° C., GTP. On the procedure:
Activity is measured by the increase in optical density at 345 nm of a mixture of purified tubulin and MAP2, incubated at 37° C. in the presence of GTP.

For data set [3], the system named is Noradrenergic α2. The data set can be described thus: CNS receptor binding assay. The note with it: 10 μM; [3H] RX 821002; rat cerebral cortex.
Data set [4] addresses Serotoninergic 5-HT7 (Homo sapiens, UniProt P34969). The data set can be described thus: CNS receptor binding assay. The settings on record: read-out: % Inhibition of control specific binding.
Data set [5] concerns the target Serotoninergic 5-HT5A (Homo sapiens, UniProt P47898). Briefly: CNS receptor binding assay. The note with it: read-out: % Inhibition of control specific binding.
Data set [6] concerns the target Serotoninergic 5-HT3 (Homo sapiens, UniProt P46098). Briefly: CNS receptor binding assay. The settings on record: read-out: % Inhibition of control specific binding.
A short description of data set [7]: Blood parameters before and after MAP4343 treatment. The data set is classed as in vivo, Wistar rats. The settings on record: dependent and non-dependent rats, pre/post treatment, 10 mg/kg sub-cutaneously, FIGS. 4 to 17. On the procedure:
Blood samples were obtained before and after completion of the treatment with MAP4343 using retro-orbital sampling. Blood, serum and plasma were collected and analyzed using standard procedures to evaluate blood count panel, blood urea nitrogen, cholesterol, creatinine, T3, T4 and protein electrophoresis.
as §1

Data set [8] addresses Dopaminergic D5 (Homo sapiens, UniProt P21918). Briefly: CNS receptor binding assay. The settings on record: read-out: % Inhibition of control specific binding.
For data set [9], the target named is Dopaminergic D4.4 (Homo sapiens, UniProt P21917). Briefly: CNS receptor binding assay. The note with it: read-out: % Inhibition of control specific binding.
Dopaminergic D4.4, sequence (P21917 whole entry): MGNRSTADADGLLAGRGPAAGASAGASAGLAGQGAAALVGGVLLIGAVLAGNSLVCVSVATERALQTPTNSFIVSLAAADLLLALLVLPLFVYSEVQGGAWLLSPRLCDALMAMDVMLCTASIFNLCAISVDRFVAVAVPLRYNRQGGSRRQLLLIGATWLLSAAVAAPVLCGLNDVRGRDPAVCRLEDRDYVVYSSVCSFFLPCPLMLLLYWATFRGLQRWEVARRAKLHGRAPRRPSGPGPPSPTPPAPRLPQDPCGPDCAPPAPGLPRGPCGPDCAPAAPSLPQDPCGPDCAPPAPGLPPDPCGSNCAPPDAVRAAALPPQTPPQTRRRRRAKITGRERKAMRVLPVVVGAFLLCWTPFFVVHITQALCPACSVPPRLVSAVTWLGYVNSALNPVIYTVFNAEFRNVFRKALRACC
The target in data set [10] is Serotoninergic 5-HT2C (Homo sapiens, UniProt P28335). Briefly: CNS receptor binding assay. The settings on record: read-out: % Inhibition of control specific binding.
Serotoninergic 5-HT2C, sequence (P28335 33-458): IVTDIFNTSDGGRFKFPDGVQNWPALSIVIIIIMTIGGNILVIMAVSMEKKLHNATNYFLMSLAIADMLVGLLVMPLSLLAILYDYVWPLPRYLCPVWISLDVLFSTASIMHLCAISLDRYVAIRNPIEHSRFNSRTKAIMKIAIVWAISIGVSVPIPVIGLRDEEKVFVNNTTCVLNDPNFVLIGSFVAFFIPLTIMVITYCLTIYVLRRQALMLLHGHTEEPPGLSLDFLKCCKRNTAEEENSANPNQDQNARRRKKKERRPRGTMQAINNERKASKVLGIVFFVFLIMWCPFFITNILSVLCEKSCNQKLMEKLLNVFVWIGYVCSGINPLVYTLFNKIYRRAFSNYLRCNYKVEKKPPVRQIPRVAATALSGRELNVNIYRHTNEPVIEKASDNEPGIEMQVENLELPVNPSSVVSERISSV
The target of data set [11] is Noradrenergic Transporter (Homo sapiens, UniProt P23975). Briefly: CNS receptor binding assay. The settings on record: [3H] nisoxetine, Human recombinant (CHO cells), read-out: % Inhibition of control specific binding.
Noradrenergic Transporter, sequence (P23975 whole entry): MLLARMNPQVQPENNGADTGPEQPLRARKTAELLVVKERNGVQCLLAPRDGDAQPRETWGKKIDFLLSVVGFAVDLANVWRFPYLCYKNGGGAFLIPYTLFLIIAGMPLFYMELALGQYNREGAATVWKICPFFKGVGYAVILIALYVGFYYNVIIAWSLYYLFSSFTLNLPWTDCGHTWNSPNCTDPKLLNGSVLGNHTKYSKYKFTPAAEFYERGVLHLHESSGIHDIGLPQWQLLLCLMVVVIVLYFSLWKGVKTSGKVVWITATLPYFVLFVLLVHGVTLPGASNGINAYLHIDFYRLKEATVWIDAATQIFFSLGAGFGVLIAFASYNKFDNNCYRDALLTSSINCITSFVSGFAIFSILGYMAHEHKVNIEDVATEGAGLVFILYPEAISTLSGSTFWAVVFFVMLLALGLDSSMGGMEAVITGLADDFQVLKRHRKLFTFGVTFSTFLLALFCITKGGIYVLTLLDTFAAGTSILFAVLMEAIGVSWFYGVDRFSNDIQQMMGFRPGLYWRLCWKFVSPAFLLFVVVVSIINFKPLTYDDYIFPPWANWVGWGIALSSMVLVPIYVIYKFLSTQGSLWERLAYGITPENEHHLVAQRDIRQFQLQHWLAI

Serotoninergic 5-HT5A, sequence (P47898 whole entry): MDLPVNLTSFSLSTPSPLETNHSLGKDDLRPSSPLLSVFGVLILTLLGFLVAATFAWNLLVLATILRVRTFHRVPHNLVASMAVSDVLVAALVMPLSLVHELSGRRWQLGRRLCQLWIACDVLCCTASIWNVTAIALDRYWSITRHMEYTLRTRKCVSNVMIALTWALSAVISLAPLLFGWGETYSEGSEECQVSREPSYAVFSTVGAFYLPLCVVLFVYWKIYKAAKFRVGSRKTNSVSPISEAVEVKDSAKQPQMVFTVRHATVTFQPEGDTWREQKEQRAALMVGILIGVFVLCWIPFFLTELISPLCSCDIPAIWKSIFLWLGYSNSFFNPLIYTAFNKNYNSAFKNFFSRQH
purified tubulin and MAP2, sequence (P11137 whole entry): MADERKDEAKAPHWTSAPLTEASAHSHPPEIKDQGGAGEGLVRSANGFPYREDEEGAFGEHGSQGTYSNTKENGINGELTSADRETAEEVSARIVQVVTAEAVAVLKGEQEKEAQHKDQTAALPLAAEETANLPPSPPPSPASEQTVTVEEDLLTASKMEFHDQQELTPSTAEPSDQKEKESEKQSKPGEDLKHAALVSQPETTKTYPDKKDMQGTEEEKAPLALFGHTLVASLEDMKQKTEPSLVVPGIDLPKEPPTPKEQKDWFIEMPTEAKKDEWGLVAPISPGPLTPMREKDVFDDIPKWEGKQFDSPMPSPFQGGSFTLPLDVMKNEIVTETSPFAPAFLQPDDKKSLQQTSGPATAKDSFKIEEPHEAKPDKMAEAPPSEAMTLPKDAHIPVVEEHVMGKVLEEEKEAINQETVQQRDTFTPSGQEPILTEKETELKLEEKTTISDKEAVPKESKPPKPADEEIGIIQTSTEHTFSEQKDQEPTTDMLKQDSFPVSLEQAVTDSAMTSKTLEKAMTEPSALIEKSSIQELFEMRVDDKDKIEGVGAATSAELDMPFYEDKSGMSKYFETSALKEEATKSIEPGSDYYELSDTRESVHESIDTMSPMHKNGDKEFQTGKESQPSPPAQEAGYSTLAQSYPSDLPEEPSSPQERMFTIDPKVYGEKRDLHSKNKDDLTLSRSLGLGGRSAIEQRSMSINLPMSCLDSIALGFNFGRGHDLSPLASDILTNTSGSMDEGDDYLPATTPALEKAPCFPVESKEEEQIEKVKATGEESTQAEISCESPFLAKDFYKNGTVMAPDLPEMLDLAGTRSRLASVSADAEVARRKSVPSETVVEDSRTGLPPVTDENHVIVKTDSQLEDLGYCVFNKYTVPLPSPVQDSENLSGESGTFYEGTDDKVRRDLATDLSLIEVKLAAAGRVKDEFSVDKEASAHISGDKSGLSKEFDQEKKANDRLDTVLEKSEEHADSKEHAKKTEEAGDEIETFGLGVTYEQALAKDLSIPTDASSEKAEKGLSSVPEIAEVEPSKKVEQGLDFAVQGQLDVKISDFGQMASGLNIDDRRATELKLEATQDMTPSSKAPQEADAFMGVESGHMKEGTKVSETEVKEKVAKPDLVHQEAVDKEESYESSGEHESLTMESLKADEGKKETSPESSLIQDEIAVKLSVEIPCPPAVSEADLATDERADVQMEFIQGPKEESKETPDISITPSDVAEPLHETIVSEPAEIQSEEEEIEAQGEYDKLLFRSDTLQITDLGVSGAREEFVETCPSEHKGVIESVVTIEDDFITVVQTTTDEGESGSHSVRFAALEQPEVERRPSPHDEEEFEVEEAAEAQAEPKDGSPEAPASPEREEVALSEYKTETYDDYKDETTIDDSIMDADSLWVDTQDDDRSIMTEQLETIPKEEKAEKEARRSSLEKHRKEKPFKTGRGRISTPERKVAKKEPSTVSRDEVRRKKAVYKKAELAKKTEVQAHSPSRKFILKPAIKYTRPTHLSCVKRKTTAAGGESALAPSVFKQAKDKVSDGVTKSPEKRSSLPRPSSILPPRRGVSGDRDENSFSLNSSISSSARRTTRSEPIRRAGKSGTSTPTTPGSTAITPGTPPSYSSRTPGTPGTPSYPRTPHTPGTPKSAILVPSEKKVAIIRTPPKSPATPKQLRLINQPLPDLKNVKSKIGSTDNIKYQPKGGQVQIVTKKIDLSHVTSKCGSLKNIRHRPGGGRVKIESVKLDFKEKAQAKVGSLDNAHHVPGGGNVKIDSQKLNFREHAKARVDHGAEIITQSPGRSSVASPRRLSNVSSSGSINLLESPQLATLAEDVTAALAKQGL
Dopaminergic D5, sequence (P21918 whole entry): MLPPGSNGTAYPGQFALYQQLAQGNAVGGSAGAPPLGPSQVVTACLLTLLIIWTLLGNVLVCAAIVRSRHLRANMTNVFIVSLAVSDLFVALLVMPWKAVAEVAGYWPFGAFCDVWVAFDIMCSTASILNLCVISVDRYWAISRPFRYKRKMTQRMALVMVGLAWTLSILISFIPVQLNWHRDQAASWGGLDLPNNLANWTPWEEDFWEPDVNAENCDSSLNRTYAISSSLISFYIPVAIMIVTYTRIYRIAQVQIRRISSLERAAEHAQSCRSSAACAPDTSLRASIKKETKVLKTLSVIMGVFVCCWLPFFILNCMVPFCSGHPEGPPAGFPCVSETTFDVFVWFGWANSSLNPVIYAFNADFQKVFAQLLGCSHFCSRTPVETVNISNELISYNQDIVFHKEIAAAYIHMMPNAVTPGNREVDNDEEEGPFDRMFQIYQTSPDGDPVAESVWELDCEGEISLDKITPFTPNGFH
Serotoninergic 5-HT7, sequence (P34969 whole entry): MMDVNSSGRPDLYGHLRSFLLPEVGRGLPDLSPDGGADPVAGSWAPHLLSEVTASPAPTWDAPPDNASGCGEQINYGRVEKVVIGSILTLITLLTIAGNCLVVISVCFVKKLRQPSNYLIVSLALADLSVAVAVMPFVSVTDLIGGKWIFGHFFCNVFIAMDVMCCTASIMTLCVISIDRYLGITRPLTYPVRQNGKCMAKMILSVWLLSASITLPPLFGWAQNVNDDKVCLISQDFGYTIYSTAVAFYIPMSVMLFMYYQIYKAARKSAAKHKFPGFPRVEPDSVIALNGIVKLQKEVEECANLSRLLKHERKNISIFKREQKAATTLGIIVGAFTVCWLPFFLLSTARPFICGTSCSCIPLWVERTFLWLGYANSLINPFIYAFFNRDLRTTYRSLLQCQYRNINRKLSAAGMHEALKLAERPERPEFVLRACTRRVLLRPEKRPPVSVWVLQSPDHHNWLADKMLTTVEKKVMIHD

Usually inhibition stands for the drop in the measured response relative to a control, in per cent. On to `CO[C@H]1CC[C@@]2(C)C(=CC[C@H]3[C@@H]4CC[C@H](C(C)=O)[C@@]4(C)CC[C@@H]32)C1` [MAP4343, 3β-methoxy-pregna-5-ene-20-one], for which, in [1] (dependent (vapor) rats, 10 mg/kg sub-cutaneously in sesame oil 24 hours before each test session, p<0.05 from test session 8), the “operant responding for alcohol (alcohol reinforced responses)” value is given as “significantly reduce operant responding for alcohol selectively in the dependent animals”. Besides, the “time of treatment until efficacy was apparent” value in [1] (dependent rats, 10 mg/kg sub-cutaneously) is approximately 10 days. The “reduction of excessive alcohol drinking” value in [1] (non-dependent (air) rats, 10 mg/kg sub-cutaneously 24 hours before each test session) is recorded as “not in non-dependent rats”. Also, in data set [2], the “Activity (percent of PREG)” value was 100% of PREG. For the same compound, the “% Inhibition of control specific binding” value in data set [3] stood at 7%. Further, the inhibition at 10 µM in data set [4] is -11%; in [5], -5%; in data set [6] it was 10%; in data set [8], -7%; in data set [9], 6%; in data set [10] it was 7%. For the same compound, in data set [11], the inhibition at 10 µM came to 3%. The “effect on blood parameters (blood count panel, blood urea nitrogen, cholesterol, creatinine, T3, T4, protein electrophoresis)” value in [7] is listed as “no significant effects of dependence or treatment on any of the blood parameters investigated”.

The record behind these values is patent US20210322443A1 (MAPREG, priority 2015, published 2021).
